Source: US10725043B2, “Three-dimensional fibroblast aggregate and in vitro 3D skin dermis model comprising same” (S-BIOMEDICS, priority 2015, dated 2020)

Columns and labels:
MMP1 [1] = assay: MMP1 secretion (ELISA) in two-dimensionally cultured, UVB-irradiated fibroblasts treated with MMP inhibitors; assay type: cell-based, human; conditions: for secreted amount of MMP1 relative to the control group: 2D fibroblasts, UVB 20 mJ/cm^2, 2 days, FIG. 17; for decrease of MMP1 in 2D cells in comparison with the 3D cell cluster: 2D UVB fibroblasts versus 3D cell cluster
Procedure: As a control group for the 3D fibroblast cluster and for the comparison of the inhibitory effect of MMP inhibitors using the two-dimensionally cultured fibroblasts, fibroblasts irradiated with ultraviolet B (UVB) were used. In detail, fibroblasts that were suspended in high-concentration glucose DMEM were seeded onto each well of a tissue culture treated 6-well plate at a concentration of 2.5×10^5 cells/cm^2, and then, cultured in a stationary incubator at a temperature of 37° C. for 1 day. Next, a washing process was performed thereon three times by using PBS, a serum-free MEM medium was added thereto, and the fibroblasts were cultured in a stationary incubator at a temperature of 37° C. for 1 hour. After a washing process was performed thereon three times by using PBS, to induce overexpression of MMP1, UVB (20 mJ/cm^2) was irradiated thereto. Following UV irradiation, the resulting fibroblasts were inoculated with various concentrations of retinoic acid (2, 10, 40 mM), abietic acid (20, 100, 400 mM), and TGF-b1 (1, 5, 20, ng/ml) that were diluted in a fibroblast growth medium (FGM, Lonza Company). The inoculated fibroblasts were then additionally cultured in a stationary incubator at a temperature of 37° C. for 2 days. The culture broth was recovered therefrom, and was subjected to measurement of secretion of MMP1. Through the measurement, the culture broth was quantified by using the ELISA kit (R&D Company), wherein a method of using the kit was proceeded according to the supplier's protocol.

MMP1 [2] = assay: MMP1 secretion (ELISA) in 3D fibroblast cluster treated with MMP inhibitors; assay type: cell-based, human; conditions: retinoic acid 10 mM, abietic acid 100 mM, TGF-b1 5 ng/ml, cultured 2 and 4 days, FIG. 16
Procedure: To prepare an in vitro 3D artificial dermis model, fibroblasts were first cultured. In detail, human dermal fibroblasts were cultured in high glucose Dulbecco's modified Eagle's medium (DMEM, Welgene, Daegu, South Korea) by using a tissue culture flask under conditions of 37° C., 5% CO2, and 95% O2 atmosphere. Human dermal fibroblasts of 5 passages were used for all experiments.
The fibroblasts were seeded onto the culture container, thereby preparing a 3D fibroblast cluster. In detail, fibroblasts were seeded onto the 96-well NTCP containing fibroblast growth medium (FGM, Lonza) at a concentration of 1.25×10^5 cells/cm^2 per well, and cultured at a temperature of 37° C. The fibroblasts were cultured in a 2D manner on a surface of the culture container, and separated from the surface. Such separated or delocalized 2D fibroblast cluster was then continuously cultured while floating in the culture container, and within 24 hours, a 3D fibroblast cluster was formed spontaneously. The formed 3D fibroblast cluster was collected on the 1st day (Day 1), 3rd day (Day 3), and 5th day (Day 5) of the culture. […] Hereinafter, the 3D fibroblast cluster was represented by ‘3DCM’.
In detail, the 3D fibroblast cluster of the culture at Day 1 prepared according to Example 2(1) was inoculated with retinoic acid (10 mM), abietic acid (100 mM), transforming growth factor-b1 (TGF-b1) (5 ng/ml) that were diluted in a […] (FGM, Lonza Company). The inoculated 3D fibroblast cluster was then cultured in a stationary incubator at a temperature of 37° C. for 2 and 4 days, separately. The culture broth was recovered therefrom, and was subjected to measurement of secretion of MMP1. Through the measurement, the culture broth was quantified by using the ELISA kit (R&D Company), wherein a method of using the kit was proceeded according to the supplier's protocol.

[3] = retinoic acid 2, 10, TGF-b1 1, 5, 20 ng/ml

Compound | secreted amount of MMP1 relative to the control group (MMP1 [1]; abietic acid 20 mM) | secreted amount of MMP1 relative to the control group (MMP1 [1]; abietic acid at least 100 mM) | secretion levels of MMP1 relative to the control group (MMP1 [2]) | decrease of MMP1 in 2D cells in comparison with the 3D cell cluster (MMP1 [1]) | secreted amount of MMP1 relative to the control group (MMP1 [1]; [3])
CC(C)C1=CC2=CC[C@@H]3[C@](C)(CCC[C@@]3(C)C(=O)O)[C@H]2CC1 [abietic acid] | approximately reduced to half | about 2% | ~81% |  | 
CC1=C(/C=C/C(C)=C/C=C/C(C)=C/C(=O)O)C(C)(C)CCC1 [retinoic acid] |  |  | about 80% | about 2.7 times | about 30%
transforming growth factor-b1 [TGF-b1] |  |  | about 60% | 1.7 to 2.4 times | 25-35%
